Earlier results as cited in patent US9980959B2, “Method and composition for treating rhinitis” (Biolipox AB, priority 2004, dated 2018).

Key:
[1] = nasal spray
[2] = mist administered to the lung with a nebulizer

O=C(O)COCCN1CCN(C(c2ccccc2)c2ccc(Cl)cc2)CC1 (stereo not shown) [cetirizine, [2-{4-[(4-chlorophenyl)-phenylmethyl]-1-piperazinyl}ethoxy]acetic acid]
Effect on symptoms in perennial allergic rhinitis (nasal spray 0.625, 1.25, 2.5 mg/mL three times a day for two weeks): Some effect | Incidence of side effects (nasal events) (nasal spray versus placebo): no difference in incidence between the placebo and the cetirizine-treated groups | Symptoms and nasal peak flow after an allergen challenge [1]: reduce symptoms and increase nasal peak flow | Protective effect in exercise-induced asthma [2]: good protective effect
